Results published in patent publication US8084593B2, “Polynucleotide encoding a TRIM-Cyp polypeptide, compositions thereof, and methods of using same” (The Trustees of Columbia University in the City of New York, priority 2004, dated 2011).
Entries after “also recorded” stand apart in the source; their conditions may differ.

Assays:
HIV-1 [1] = test system: HIV-1
Experimental: (§1) FIGS. 3a-3e. […] WT, wild type. HeLa cells (d) or Rat2 cells (e) transduced with the indicated cDNAs were infected with HIV-1.
(§2) Generation of stable cell lines—To generate stable RNAi knockdown lines, 1 ml of pMH vector-containing media was pelleted onto OMK cells (1,200 g for 72 min) in 12-well plates. Infection was repeated 24 h later. ntTRIMCyp, TRIMStop and ntCypAOM cDNAs were transduced with either pMIG (OMK and HeLa cells) or pLPCX (TE671 and Rat2 cells). pLPCX-infected cells were selected in 1 μg ml^−1 puromycin.
(§3) Infection assays—Cells were assayed by flow cytometry 48 to 72 h post-infection to determine the percentage of cells that were GFP-positive (FL-1) or DsRed-positive (FL-2). Cells transduced with pMIG vectors and infected with HIV-DsRed were gated to limit the analysis to GFP-positive cells.

N-MLV [2] = experiment: N-MLV / B-MLV GFP vector infection of transduced TE671 cells, FACS; assay type: cell-based, murine leukemia virus; settings: for N-MLV replication defect (N-tropic restriction by endogenous TRIM5αhu) in cells expressing the construct: TE671 cells, control cells: B-MLV ˜200-fold more infectious than N-MLV
Experimental: (§4) FIGS. 7a-7c. […] (a) TE671 cells expressing the indicated LPCX derived constructs were infected with GFP-expressing B-MLV and N-MLV vectors at multiple doses. Cells were infected in the presence or absence of As2O3 (3 μM). Two days later, the percentage of infected cells was determined by FACS. (b) OMK cells were transduced with MIG (Vect) or with MIG-TRIM5αhu (T5hu) and challenged with DsRed-expressing N-MLV or B-MLV vectors. Two days later, the percentage of infected cells was determined by FACS.
FIGS. 8a-8c. Effect of TRIMStop on TRIM5αhu antiviral activity. (a) TE671-Vector (Vector) cells and TE671-TRIMStop cells were infected with HIV-1NL-GFP (left panel) or with N- and B-MLV (right panel). Two days later, the percentage of infected (GFP expressing) cells was determined by FACS. (b) Total RNA was prepared from TE671-Vector (Vect), TE671-TRIMCyp (TC), and TE671-TRIMStop (TS), and RT-PCR was used to detect endogenous TRIM5α or TRIMCyp/TRIMStop. RT was performed in the presence (+) or absence (−) of reverse transcriptase. (c) 293T cells were transfected with LPCX (Vect), LPCX-TRIMCyp (TC), or LPCX-TRIMStop (TS), and Western blotting was performed using an antibody specific to TRIM5.
Next, we analyzed MLV replication in TE671-TRIM5αrh, TE671-TRIMCyp, and the control TE671-vector cells.

HIV-1 [3] = test system: HIV-1; remark: listed apart in the source
Experimental: as §1
(§5) HIV-DsRed and HIV-GFP vectors were produced in 293T cells by co-transfection of CSGW or CSRW with p8.9NΔSB (wild type or G89V mutant) and pMD.G, also at 5:5:1 ratio. HIV/Env-/GFP and SIV/Env-/GFP viruses were produced by cotransfection of the wild type or G89V HIV/Env-/GFP plasmids with pMD.G at a 10:1 ratio. All vectors and viruses were harvested 48 h post-transfection, filtered (0.45-μm filter, Pall Acrodisc), aliquoted, and stored at −80° C. Stocks were normalized by reverse transcriptase activity or p24 ELISA (8).
as §2, §3

HIV-1NL-GFP = assay type: cell-based, human immunodeficiency virus type 1; settings: for HIV-1 cDNA synthesis (Southern blot) / HIV-1 infection (GFP-positive cells by FACS): TE671 cells; for HIV-1 cDNA synthesis (Southern blot): 16 h after infection; for HIV-1 infection (GFP-positive cells by FACS): LPCX vectors
Experimental: FIG. 6. […] LPCX-based retroviral vectors were used to transduce the indicated genes into human TE671 cells. Vect, Cyp, TS, TC and T5rh designate, respectively, Vector control, owl monkey CypA, TRIMStop, TRIMCyp, and TRIM5αrh. […] One twentieth of the cells were maintained in culture for another day and used to determine the percentage of GFP-positive cells by FACS (bottom of the figure). Total DNA was extracted from the remainder of the cells 16 h after infection, and 5 μg of each DNA sample was analyzed by Southern blotting. The positions of the linear, 1-LTR, and 2-LTR HIV-1 cDNA species are indicated on the left. “Total” DNA refers to a band specific to all HIV-1 cDNA forms, including the integrated DNA.
We transduced human rhabdomyosarcoma TE671 cells (45) with previously described LPCX vectors (reference 5, see also Example 1) bearing cDNAs for TRIM5αrh, TRIMCyp, or owl monkey CypA. Cells were also transduced with a vector expressing TRIMStop, a truncated version of TRIMCyp lacking the CypA domain (see Example 1). Pools of transduced cells were selected in puromycin and then assessed for susceptibility to infection with HIV-1NL-GFP (32). […] We monitored the percentage of infected (GFP-expressing) cells by fluorescence-activated cell sorting (FACS) and the synthesis of viral cDNA in the infected cells using a Southern blot designed to detect full-length, linear viral cDNA and circular viral cDNAs that form in the nucleus (31, 32, 47).

HIV-1 CA = HIV-1 CA (Human immunodeficiency virus type 1 group M subtype B, UniProt P12493); settings: detergent-prepared virion cores, affinity chromatography
Experimental: Retrovirion cores can be liberated from the viral membrane envelope by detergent (54). HIV-1 virion cores were prepared with several different detergents and mixed with recombinant TRIM5 orthologues.

HIV-1 clone NL4-3 = experiment: Spreading HIV-1 NL4-3 infection of transduced Jurkat T cells, supernatant reverse transcriptase activity; assay type: cell-based, human immunodeficiency virus type 1; settings: Jurkat T cells transduced with owl monkey TRIMCyp cDNA
Excerpt: FIG. 13. […] Retroviral vectors were used to transduce human Jurkat T cells with the cDNA encoding owl monkey TRIMCyp. Control cells were transduced with vector lacking the cDNA. Cells were challenged with full infectious HIV-1 clone NL4-3. Supernatant was collected and assessed for viral reverse transcriptase activity (a quantitative measure of the amount of virus produced in the culture).

HIV-1 Gag = HIV-1 Gag (Human immunodeficiency virus type 1 group M subtype B, UniProt P12493); settings: LexA / B42 fusions, S. cerevisiae EGY48
Experimental: (A) Yeast two-hybrid system. […] Pairs of fused LexA and B42 expression plasmids were transformed into Saccharomyces cerevisiae strain EGY48. For each transformant, β-galactosidase activity for three colonies is reported in Miller units with the standard deviation. (B) Binding in mammalian cells.
Fusions of these proteins with LexA and/or B42 were constructed, and the interactions between fusion proteins were analyzed using a previously described system (37) in which reporter gene β-galactosidase activity was assessed with a quantitative assay (43).

HIV-1 [4] = settings: OMKMH-CypA-147 cells, pMIG vector, HIV-1 DsRed vector
Experimental: as §2, §3

TRIM5αhu = biological target: T1, TRIM5αhu (Homo sapiens, UniProt Q9C035); experiment: GST pull down from cotransfected 293T cells, Western blotting; assay type: binding; settings: glutathione-Sepharose beads, anti-TRIM5 Western blot
T1 construct: expressed in transfected cells; host or cells: 293T
T1 sequence (Q9C035 whole entry): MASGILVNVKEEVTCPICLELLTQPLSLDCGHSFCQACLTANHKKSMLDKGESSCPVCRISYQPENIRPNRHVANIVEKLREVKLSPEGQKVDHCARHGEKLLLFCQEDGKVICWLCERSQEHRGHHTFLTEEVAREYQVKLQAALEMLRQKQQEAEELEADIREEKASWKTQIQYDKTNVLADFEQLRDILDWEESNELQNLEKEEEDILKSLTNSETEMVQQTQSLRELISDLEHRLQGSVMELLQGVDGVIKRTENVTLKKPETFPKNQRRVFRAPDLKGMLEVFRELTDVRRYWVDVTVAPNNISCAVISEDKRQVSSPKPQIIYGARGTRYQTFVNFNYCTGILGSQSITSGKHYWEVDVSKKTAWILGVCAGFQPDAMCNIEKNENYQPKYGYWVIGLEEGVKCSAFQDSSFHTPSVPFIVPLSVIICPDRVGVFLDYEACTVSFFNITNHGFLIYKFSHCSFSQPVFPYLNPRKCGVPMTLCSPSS
Excerpt: (§6) FIGS. 9A-9B. TRIMCyp and TRIMStop both bind TRIM5αhu. (A) Yeast two-hybrid system. […] (B) Binding in mammalian cells. TRIM5αhu was fused to GST.
To investigate TRIM5:TRIMCyp heterodimerization in mammalian cells, we expressed TRIM5αhu in fusion with glutathione-S-transferase (GST) and transfected 293T cells with either GST or GST-TRIM5αhu. These cells were cotransfected with the LPCX plasmid constructs described above that express TRIMCyp or TRIMStop. […] The blot was also probed with an anti-cyclophilin A antibody, confirming the identity of TRIMCyp (FIG. 9b).

[5] = test system: TRIM5 orthologues (TRIMCyp, TRIM5αrh, TRIM5αhu, TRIMStop, huTRIMStop); experiment: Yeast two-hybrid system, β-galactosidase activity: TRIM5 orthologues; assay type: binding; settings: LexA / B42 fusions, S. cerevisiae EGY48
Excerpt: as §6

SIVMAC239 = SIVMAC239 infection of TE671 cells transduced with cDNAs; assay type: cell-based, simian immunodeficiency virus; settings: stable TE671 cell lines
Experimental: as §1, §5, §2, §3

HIV-1 [6] = experiment: HIV-1-derived CSRW vector challenge of OMK/MIG and OMK/MIG-T5hu cells; assay type: cell-based, human immunodeficiency virus type 1; settings: OMK cells expressing TRIM5αhu
Experimental: as §4
(§7) We also performed the reciprocal experiment, transducing owl monkey OMK cells with TRIM5αhu and challenging them with MLV or HIV-1.

CAp30 from B-MLV virions = experiment: CA pull-out of B-MLV virions with GST-TRIM5 fusions; assay type: binding, murine leukemia virus; settings: GST fusion produced in 293T cells, purified virions
B-MLV = B-MLV DsRed vector challenge of OMK cells transduced with MIG-TRIM5αhu; assay type: cell-based, murine leukemia virus
Experimental: as §4, §7

N-MLV [7] = experiment: N-MLV DsRed vector challenge of OMK cells transduced with MIG-TRIM5αhu; assay type: cell-based, murine leukemia virus
Experimental: as §4, §7

CAp30 from N-MLV virions = experiment: CA pull-out of N-MLV virions with GST-TRIM5 fusions; assay type: binding, murine leukemia virus; settings: GST fusion produced in 293T cells, purified virions
HIV-1 [8] = assay type: cell-based, human immunodeficiency virus type 1
Experimental: as §5, §3

## TRIMCyp: owl monkey TRIM5-CypA fusion protein, 54-kD, SEQ ID NO:4; ntTRIMCyp is its RNAi-resistant cDNA with silent mutations
HIV-1 [1]; pMIG vector
  HIV-1 restriction in transduced HeLa cells: exhibited the same restriction
HIV-1 [1]; rat fibroblasts (Rat2)
  HIV-1 restriction in non-primate cells: functional
N-MLV [2]
  N-MLV replication defect (N-tropic restriction by endogenous TRIM5αhu) in cells expressing the construct: fully abrogated
HIV-1 [3]
  HIV-1 infection / titre in cells expressing the cDNA: highly resistant to HIV-1 infection
HIV-1NL-GFP
  efficiency of inhibition of HIV-1 replication relative to TRIM5αrh: roughly fivefold more efficiently than TRIM5αrh
  HIV-1 cDNA synthesis (Southern blot): inhibited HIV-1 cDNA synthesis
  HIV-1 infection (GFP-positive cells by FACS): inhibited HIV-1 infection of TE671 cells
HIV-1 CA
  association of HIV-1 CA with TRIM5 orthologue: associated
HIV-1 clone NL4-3
  protection of human T cells from spreading HIV-1 infection: protected from a spreading, cytopathic HIV-1 infection
HIV-1 Gag
  interaction with HIV-1 Gag: interacted equally well
HIV-1 [4]
  HIV-1 restriction after transduction of RNAi-resistant cDNA: restricted HIV-1
TRIM5αhu
  association with GST-TRIM5αhu: associated with TRIM5αhu
[5]
  interaction with TRIM5 orthologues: interacted equally well; also recorded: associates with human TRIM5-α
SIVMAC239
  SIVMAC239 infection in cells expressing the cDNA: unaffected

## TRIM5αrh: alpha isoform of rhesus macaque TRIM5 [reference compound]
N-MLV [2]
  N-MLV replication defect (N-tropic restriction by endogenous TRIM5αhu) in cells expressing the construct: about 20 fold
HIV-1NL-GFP
  HIV-1 cDNA synthesis (Southern blot): inhibited HIV-1 cDNA synthesis
  HIV-1 infection (GFP-positive cells by FACS): inhibited HIV-1 infection of TE671 cells

## TRIM5αhu: human TRIM5α; in Example 3 produced as a GST-fusion protein in 293T cells
HIV-1 [6]
  restriction of HIV-1 compared with control cells: similar
CAp30 from B-MLV virions
  association of CAp30 from B-MLV virions: did not associate
B-MLV
  effect on B-MLV: no effect
N-MLV [7]
  restrictive effect on the replication of N-MLV: approximately twofold
CAp30 from N-MLV virions
  association of CAp30 from N-MLV virions: associated

## C/C=C/C[C@@H](C)[C@@H](O)[C@H]1C(=O)N[C@@H](CC)C(=O)N(C)CC(=O)N(C)[C@@H]([C@@H](C)CC)C(=O)N[C@@H](C(C)C)C(=O)N(C)[C@@H](CC(C)C)C(=O)N[C@@H](C)C(=O)N[C@H](C)C(=O)N(C)[C@@H](CC(C)C)C(=O)N(C)[C@@H](CC(C)C)C(=O)N(C)[C@@H](C(C)C)C(=O)N1C [MeIle^4-CsA]
HIV-1 [8]
  HIV-1 infection of OMK cells on drug treatment of target cells: permits HIV-1 to infect OMK cells at an efficiency similar to that of SIV

## TRIM5 lacking the SPRY domain: GST fusion with human TRIM5 lacking the SPRY domain
CAp30 from N-MLV virions
  association of CAp30 from N-MLV virions: did not associate

## sanglifehrin
HIV-1 [8]
  HIV-1 infection of OMK cells on drug treatment of target cells: permits HIV-1 to infect OMK cells at an efficiency similar to that of SIV

## O=[As]O[As]=O (centres unmarked) [As2O3]
N-MLV [2]; TE671-TRIM5αrh and TE671-TRIMCyp, As2O3 3 μM
  enhancement of infectivity in cells expressing TRIM5αrh or TRIMCyp: no longer enhanced infectivity
N-MLV [2]; control TE671 cells, As2O3 3 μM
  increase of N-MLV infectivity: ≥ 10 fold

B1: TRIMStop: construct in which TRIMCyp has been truncated with a stop codon replacing the first codon of the CypA domain (protein)
chain: MASRILVNIKEEVTCPICLELLTEPLSLDCGHSFCQACITANHKKSMPHQGERSCPLCRISYSSENLRPNRHLVNIVERLREVMLSPEEGQKVDHCAHHGEKLVLFCQQDGNVICWLCERSQEHRGHQTFLVEEVAQKYREKLQVALEMMRQKQKDAEKLEADVREEQASWKIQIQNDKTNIMAEFKKRRDILDCEESKELQNLEKEEKNILKRLVQSENDMVLQTQSVRVLISDLEHRLQGSVMELLQGVDGVIKRIEKVTLQNPKTFLNEKRRIFQTPDLKGTLQVFKEPTEVQRYWDAAAWDLVASA
N-MLV [2]
  N-MLV replication defect (N-tropic restriction by endogenous TRIM5αhu) in cells expressing the construct: did not affect the capacity of TE671 cells to restrict N-MLV replication
HIV-1 [3]
  HIV-1 infection / titre in cells expressing the cDNA: no effect on HIV-1 titre
HIV-1 Gag
  interaction with HIV-1 Gag: not able to interact with Gag
TRIM5αhu
  association with GST-TRIM5αhu: associated with TRIM5αhu
[5]
  interaction with TRIM5 orthologues: as competent as TRIMCyp
